Test results published in patent US12398130B2, “Acid addition salts of piperazine derivatives” (Asceneuron SA, priority 2016, dated 2025).
Where a name gives a salt, the structure may show the parent alone.

Assay: Visual aqueous solubility
Assay type: physicochemical
Settings: water added in portions to ~10 mg, assessed visually after brief equilibration
Protocol: The salts and free base (˜10 mg) were weighed into glass vials and water was added in 0.1 mL portions up to 3 mL and 1 mL portions thereafter. Solubility was assessed visually following a brief period of equilibration.

## CC(=O)Nc1nnc(N2CCN([C@@H](C)c3ccc4c(c3)OCO4)CC2)s1 [Example 69, (S)—N-(5-(4-(1-(benzo[d][1,3]dioxol-5-yl)ethyl)piperazin-1-yl)-1,3,4-thiadiazol-2-yl)acetamide]
Listed as Free base
  Visual aqueous solubility: <500 µg/mL

## CC(=O)Nc1nnc(N2CCN([C@@H](C)c3ccc4c(c3)OCO4)CC2)s1 [Hydrochloride salt, (S)—N-(5-(4-(1-(benzo[d][1,3]dioxol-5-yl)ethyl)piperazin-1-yl)-1,3,4-thiadiazol-2-yl)acetamide]
  Visual aqueous solubility: ~4500 µg/mL

## CC(=O)Nc1nnc(N2CCN([C@@H](C)c3ccc4c(c3)OCO4)CC2)s1 [L-Tartrate salt, (S)—N-(5-(4-(1-(benzo[d][1,3]dioxol-5-yl)ethyl)piperazin-1-yl)-1,3,4-thiadiazol-2-yl)acetamide]
  Visual aqueous solubility: ~20000 µg/mL

## CC(=O)Nc1nnc(N2CCN([C@@H](C)c3ccc4c(c3)OCO4)CC2)s1 [Maleate salt, (S)—N-(5-(4-(1-(benzo[d][1,3]dioxol-5-yl)ethyl)piperazin-1-yl)-1,3,4-thiadiazol-2-yl)acetamide]
  Visual aqueous solubility: ~4500 µg/mL
